Reference: patent US11590116B2 (THERAVANCE BIOPHARMA R&D IP, LLC, priority 2019, dated 2023)
Where two headings read alike, the source gives them in different places.

Assays:
[1] = target: T1, recombinant human ALK5 (TGF-βR1) protein (Homo sapiens, UniProt P36897); experiment: Biochemical ALK5 (TGF-βR1) assay to measure pKi (LANCE Ultra ULight kinase assay); settings: apparent pKi from pIC50 by Cheng-Prusoff
T1 construct: purchased Life Technologies PR9075A
T1 sequence (P36897 34-503): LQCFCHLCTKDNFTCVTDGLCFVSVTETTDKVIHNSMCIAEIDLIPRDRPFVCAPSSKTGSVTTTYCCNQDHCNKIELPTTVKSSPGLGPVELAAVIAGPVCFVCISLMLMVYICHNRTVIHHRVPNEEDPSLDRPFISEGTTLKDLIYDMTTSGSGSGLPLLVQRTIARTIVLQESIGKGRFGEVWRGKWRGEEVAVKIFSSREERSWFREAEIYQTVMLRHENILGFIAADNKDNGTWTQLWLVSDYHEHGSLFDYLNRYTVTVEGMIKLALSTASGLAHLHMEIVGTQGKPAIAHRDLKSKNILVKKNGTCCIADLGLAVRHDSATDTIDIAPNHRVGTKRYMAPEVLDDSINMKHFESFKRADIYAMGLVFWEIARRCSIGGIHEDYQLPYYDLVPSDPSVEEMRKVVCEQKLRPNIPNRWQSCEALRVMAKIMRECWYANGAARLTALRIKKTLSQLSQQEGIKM
In short: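 Compounds (10 μM to 25 pM) were preincubated 60 min at room temperature with enzyme, then reactions were started with ATP (125 μM stock, 5× final) and run 60 min at 37 °C. EDTA-containing Eu-anti-phospho-Topo IIα (Thr1342) antibody stopped the reaction; TR-FRET read at 665 nm. pIC50 from 4-parameter fit, converted to pKi via Cheng-Prusoff.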

[2] = system: TGF-β-stimulated SMAD3 phosphorylation in BEAS-2B cells; experiment: Cellular ALK5 potency assay, inhibition of TGF-β stimulated pSMAD3 formation in BEAS-2B cells; type: cell-based; settings: Homo sapiens, read-out: BEAS2B pIC50 (converted)
In short: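 Cells seeded overnight; rinse with supplemented HBSS; compound 1 h at 37 °C; TGF-β 10 ng/mL final, 30 min; lyse; AlphaLISA acceptor and detector beads 2 h apart, read next day. Potency expressed as pIC50.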

[3] = inhibition of TGF-β stimulated pSMAD3 formation, BEAS-2B cells

Ki ([1]; read-out: ALK5 pKi (converted)) [nM]	Compound	IC50 [2, 3] [nM]	Ki ([1]; ALK5 pKi) [nM]	IC50 ([2]; BEAS-2B) [nM]
< 0.0316	CC(=O)NC1CC=C(c2cnc3ccc(-c4nc[nH]c4-c4cccc(C)n4)cc3c2)CC1 (stereo not shown) [Compound 26, N-[4-[6-[5-(6-methyl-2-pyridyl)-1H-imidazol-4-yl]-3-quinolyl]cyclohex-3-en-1-yl]acetamide]	< 20	–	–
0.0398 to 0.316	Cc1cccc(-c2[nH]cnc2-c2ccc3ncc(-c4ccc(C(=O)OCCN5CCNCC5)nc4)cc3c2)n1 [Compound 1054, 2-piperazin-1-ylethyl 5-[6-[5-(6-methyl-2-pyridyl)-1H-imidazol-4-yl]-3-quinolyl]pyridine-2-carboxylate]	200 to 1260	–	–
0.0398 to 0.316	Cc1nc(-c2nc3ccccn3c2-c2ccc3ncc(N4CCNCC4)cc3n2)ccc1F [Compound 2, 2-[2-(5-fluoro-6-methyl-2-pyridyl)imidazo[1,2-a]pyridin-3-yl]-7-piperazin-1-yl-1,5-naphthyridine]	25.1 to 158	–	–
0.398 to 3.16	COc1[nH]nc(-c2cccc(C)n2)c1-c1ccc2ncc(-c3cnn4c3NCC4)cc2n1 [Compound 371, 7-(2,3-dihydro-1H-imidazo[1,2-b]pyrazol-7-yl)-2-[5-methoxy-3-(6-methyl-2-pyridyl)-1H-pyrazol-4-yl]-1,5-naphthyridine]	200 to 1260	–	–
0.0398 to 0.316	CNCc1cncc(-c2cnc3ccc(-c4c[nH]nc4-c4cccc(C)n4)nc3c2)c1 [Compound 214, N-methyl-1-[5-[6-[3-(6-methyl-2-pyridyl)-1H-pyrazol-4-yl]-1,5-naphthyridin-3-yl]-3-pyridyl]methanamine]	25.1 to 158	–	–
0.0398 to 0.316	Cc1cccc(-c2[nH]cnc2-c2ccc3ncc(Nc4cnn(CCC5CCNCC5)c4)cc3c2)n1 [Compound 667, 6-[5-(6-methyl-2-pyridyl)-1H-imidazol-4-yl]-N-[1-[2-(4-piperidyl)ethyl]pyrazol-4-yl]quinolin-3-amine]	200 to 1260	–	–
< 0.0316	Cc1cccc(-c2[nH]cnc2-c2ccc3ncc(-c4ccc5c(c4)CC[C@H]5N)cc3c2)n1 [Compound 1154, (1R)-5-[6-[5-(6-methyl-2-pyridyl)-1H-imidazol-4-yl]-3-quinolyl]indan-1-amine]	< 20	–	–
< 0.0316	Cc1cccc(-c2n[nH]cc2-c2ccc3ncc(N4CC(N5CCOCC5)C4)cc3n2)n1 [Compound 156, 4-[1-[6-[3-(6-methyl-2-pyridyl)-1H-pyrazol-4-yl]-1,5-naphthyridin-3-yl]azetidin-3-yl]morpholine]	< 20	–	–
0.0398 to 0.316	Cc1cccc(-c2[nH]cnc2-c2ccc3ncc(-c4cn5c(n4)CNCC5)cc3c2)n1 [Compound 645, 6-[5-(6-methyl-2-pyridyl)-1H-imidazol-4-yl]-3-(5,6,7,8-tetrahydroimidazo[1,2-a]pyrazin-2-yl)quinoline]	200 to 1260	–	–
0.0398 to 0.316	Cc1cccc(-c2[nH]cnc2-c2ccc3ncc(N4CC5(CC(N)C5)C4)cc3c2)n1 [Compound 624, 2-[6-[5-(6-methyl-2-pyridyl)-1H-imidazol-4-yl]-3-quinolyl]-2-azaspiro[3.3]heptan-6-amine]	25.1 to 158	–	–
0.0398 to 0.316	Cc1cccc(-c2[nH]cnc2-c2ccc3ncc(-c4ncc(C(=O)O)cn4)cc3c2)n1 [Compound 1140, 2-[6-[5-(6-methyl-2-pyridyl)-1H-imidazol-4-yl]-3-quinolyl]pyrimidine-5-carboxylic acid]	200 to 1260	–	–
3.98 to 31.6	Cc1cccc(-c2n[nH]cc2-c2ccc3nccc(N(C)CC(=O)N4CCOCC4)c3n2)n1 [Compound 836, 2-[methyl-[6-[3-(6-methyl-2-pyridyl)-1H-pyrazol-4-yl]-1,5-naphthyridin-4-yl]amino]-1-morpholino-ethanone]	200 to 1260	–	–
< 0.0316	Cc1nc(-c2n[nH]cc2-c2ccc3ncc(-c4cc5n(n4)CCNC5)cc3n2)ccc1F [Compound 391, 2-[3-(5-fluoro-6-methyl-2-pyridyl)-1H-pyrazol-4-yl]-7-(4,5,6,7-tetrahydropyrazolo[1,5-a]pyrazin-2-yl)-1,5-naphthyridine]	< 20	–	–
0.0398 to 0.316	Cc1cccc(-c2nn3c(c2-c2ccc4ncc(-c5cn[nH]c5)cc4c2)CNCC3)n1 [Compound 402, 6-[2-(6-methyl-2-pyridyl)-4,5,6,7-tetrahydropyrazolo[1,5-a]pyrazin-3-yl]-3-(1H-pyrazol-4-yl)quinoline]	25.1 to 158	–	–
0.0398 to 0.316	Cc1nc(-c2n[nH]cc2-c2ccc3ncc(-c4cnn(C[C@@H]5CC[C@H](N)C5)c4)cc3n2)ccc1F (racemic) [Compound 547, rac-(1S,3R)-3-[[4-[6-[3-(5-fluoro-6-methyl-2-pyridyl)-1H-pyrazol-4-yl]-1,5-naphthyridin-3-yl]pyrazol-1-yl]methyl]cyclopentanamine]	200 to 1260	–	–
0.0398 to 0.316	Cc1cccc(-c2n[nH]cc2-c2ccc3ncc(-c4nc(C(F)(F)F)n5c4CNCC5)cc3n2)n1 [Compound 465, 2-[3-(6-methyl-2-pyridyl)-1H-pyrazol-4-yl]-7-[3-(trifluoromethyl)-5,6,7,8-tetrahydroimidazo[1,5-a]pyrazin-1-yl]-1,5-naphthyridine]	25.1 to 158	–	–
0.0398 to 0.316	Cc1cccc(-c2[nH]cnc2-c2ccc3ncc(Nc4ccc(N5CCN(C(C)C)CC5)cn4)cc3c2)n1 [Compound 365, N-[5-(4-isopropylpiperazin-1-yl)-2-pyridyl]-6-[5-(6-methyl-2-pyridyl)-1H-imidazol-4-yl]quinolin-3-amine]	25.1 to 158	–	–
< 0.0316	Cc1cccc(-c2n[nH]cc2-c2ccc3ncc(NCCN4CCN(C(C)C)CC4)cc3n2)n1 [Compound 478, N-[2-(4-isopropylpiperazin-1-yl)ethyl]-6-[3-(6-methyl-2-pyridyl)-1H-pyrazol-4-yl]-1,5-naphthyridin-3-amine]	25.1 to 158	–	–
0.0398 to 0.316	Cc1cccc(-c2n[nH]cc2-c2ccc3ncc(-c4ncn5c4CNCC5)cc3n2)n1 [Compound 118, 2-[3-(6-methyl-2-pyridyl)-1H-pyrazol-4-yl]-7-(5,6,7,8-tetrahydroimidazo[1,5-a]pyrazin-1-yl)-1,5-naphthyridine]	25.1 to 158	–	–
0.398 to 3.16	Cc1cccc(-c2[nH]cnc2-c2ccc3ncc(-c4cnc(C(=O)OCCN5CCNCC5)nc4)cc3c2)n1 [Compound 1138, 2-piperazin-1-ylethyl 5-[6-[5-(6-methyl-2-pyridyl)-1H-imidazol-4-yl]-3-quinolyl]pyrimidine-2-carboxylate]	200 to 1260	–	–
< 0.0316	Cc1cccc(-c2[nH]cnc2-c2ccc3ncc(-c4cnn(C5CNC5)c4)cc3c2)n1 [Compound 434, 3-[1-(azetidin-3-yl)pyrazol-4-yl]-6-[5-(6-methyl-2-pyridyl)-1H-imidazol-4-yl]quinoline]	25.1 to 158	–	–
–	Cc1cccc(-c2n[nH]cc2-c2ccc3ncc(C4C[C@H]5CC[C@@H](C4)N5)cc3n2)n1 (mixture of isomers) [Compound 350, 2-[3-(6-methyl-2-pyridyl)-1H-pyrazol-4-yl]-7-[rac-(1S,5R)-8-azabicyclo[3.2.1]octan-3-yl]-1,5-naphthyridine]	–	3.98 to 31.6	200 to 1260
0.0398 to 0.316	Cc1cccc(-c2n[nH]cc2-c2ccc3ncc(-c4[nH]nc5c4CNCC5)cc3n2)n1 [Compound 489, 2-[3-(6-methyl-2-pyridyl)-1H-pyrazol-4-yl]-7-(4,5,6,7-tetrahydro-2H-pyrazolo[4,3-c]pyridin-3-yl)-1,5-naphthyridine]	200 to 1260	–	–
